In ChEMBL document CHEMBL3758122, “Multitarget opioid ligands in pain relief: New players in an old game” (Eur J Med Chem, 2016):
Positions of bridges follow the written chain, without caps; N, C: chain ends. Non-standard residues stand in square brackets, D forms with d. Residues, ends and D or L forms follow the SMILES beside them. *: point of attachment. Dmt = Cc1cc(O)cc(C)c1C[C@H](N)C(=O)O; Tic = O=C(O)[C@@H]1Cc2ccccc2CN1; dTic = O=C(O)[C@H]1Cc2ccccc2CN1; NHBn = c1ccc(CN*)cc1; NHPh = c1ccc(N*)cc1

Legend:
Mu-type opioid receptor [1] = biological target: T1, Mu-type opioid receptor (Homo sapiens, UniProt P35372); test: Binding affinity at mu opioid receptor (unknown origin)
T1 sequence (P35372 whole entry): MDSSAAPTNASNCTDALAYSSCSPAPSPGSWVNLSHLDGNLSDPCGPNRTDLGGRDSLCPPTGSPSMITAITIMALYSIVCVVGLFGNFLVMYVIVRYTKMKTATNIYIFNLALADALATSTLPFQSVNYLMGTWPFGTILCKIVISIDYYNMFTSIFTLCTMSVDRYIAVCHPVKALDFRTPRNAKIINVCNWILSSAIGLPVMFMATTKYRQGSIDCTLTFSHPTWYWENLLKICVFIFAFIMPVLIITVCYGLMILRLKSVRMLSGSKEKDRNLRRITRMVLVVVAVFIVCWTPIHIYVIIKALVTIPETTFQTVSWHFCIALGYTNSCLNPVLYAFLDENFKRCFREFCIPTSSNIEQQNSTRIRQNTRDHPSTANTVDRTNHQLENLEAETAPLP

[2] = biological target: T2, Delta-type opioid receptor (Homo sapiens, UniProt P41143); test: Binding affinity at delta opioid receptor (unknown origin)
T2 sequence (P41143 whole entry): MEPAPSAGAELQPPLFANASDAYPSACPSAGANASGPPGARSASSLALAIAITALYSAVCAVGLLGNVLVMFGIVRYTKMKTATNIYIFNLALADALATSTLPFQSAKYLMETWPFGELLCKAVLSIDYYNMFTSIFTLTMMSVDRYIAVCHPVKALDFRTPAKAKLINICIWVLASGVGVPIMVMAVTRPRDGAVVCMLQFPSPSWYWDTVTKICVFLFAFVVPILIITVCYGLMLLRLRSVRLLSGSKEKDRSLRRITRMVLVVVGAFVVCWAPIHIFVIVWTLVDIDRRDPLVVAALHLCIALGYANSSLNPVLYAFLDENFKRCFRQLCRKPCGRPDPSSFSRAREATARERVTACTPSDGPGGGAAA

[3] = biological target: T2, Delta-type opioid receptor; test: Partial agonist activity at delta opioid receptor (unknown origin) assessed as [35S]GTPgammaS binding by cell based assay
Mu-type opioid receptor [4] = biological target: T1, Mu-type opioid receptor; test: Agonist activity at mu opioid receptor (unknown origin) assessed as [35S]GTPgammaS binding by cell based assay; format: functional
[5] = biological target: T2, Delta-type opioid receptor; test: Antagonist activity at […] delta opioid receptor in CD1 mouse assessed as electrically induced twitches
Mu-type opioid receptor [6] = biological target: Mu-type opioid receptor (Cavia porcellus, UniProt P97266); test: Agonist activity at mu-opioid receptor in guinea pig ileum assessed as inhibition of electrically induced twitches; format: tissue-based
Chain of Mu-type opioid receptor (Cavia porcellus, UniProt P97266) (P97266 whole entry): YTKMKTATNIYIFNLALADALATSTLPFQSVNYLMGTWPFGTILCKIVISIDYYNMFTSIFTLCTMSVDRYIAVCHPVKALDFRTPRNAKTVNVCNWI

[7] = biological target: Kappa-type opioid receptor (Rattus norvegicus, UniProt P34975); test: Displacement of [3H]DAMGO from kappa opioid receptor in albino Sprague-Dawley rat after 90 mins by liquid scintillation
Chain of Kappa-type opioid receptor (Rattus norvegicus, UniProt P34975) (P34975 whole entry): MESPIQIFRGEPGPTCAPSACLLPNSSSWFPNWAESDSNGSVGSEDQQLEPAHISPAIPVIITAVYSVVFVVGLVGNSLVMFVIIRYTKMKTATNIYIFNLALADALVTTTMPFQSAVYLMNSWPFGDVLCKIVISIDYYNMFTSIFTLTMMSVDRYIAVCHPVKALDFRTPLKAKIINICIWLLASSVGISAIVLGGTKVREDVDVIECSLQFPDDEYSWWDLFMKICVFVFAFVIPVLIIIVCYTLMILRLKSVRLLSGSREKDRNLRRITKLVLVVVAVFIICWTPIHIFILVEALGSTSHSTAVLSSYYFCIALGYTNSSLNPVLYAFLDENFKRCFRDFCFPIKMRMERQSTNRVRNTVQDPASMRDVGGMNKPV

Rattus norvegicus = test: Analgesic activity in sc dosed rat by tail flick test; format: functional
[8] = biological target: T2, Delta-type opioid receptor; test: Antagonist activity at human delta opioid receptor expressed in CHO cell membrane assessed as inhibition of DPDPE-induced [35S]-GTP-gammaS binding; format: cell membranes
Mus musculus [9] = test: Antinociceptive activity in sc dosed Kunming mouse measured after 30 mins by hot plate test; format: functional; details: 0.5 h
[10] = biological target: T3, Kappa-type opioid receptor (Homo sapiens, UniProt P41145); test: Displacement of [3H]U69,593 from human kappa opioid receptor expressed in CHO cell membrane; format: cell membranes
T3 sequence (P41145 whole entry): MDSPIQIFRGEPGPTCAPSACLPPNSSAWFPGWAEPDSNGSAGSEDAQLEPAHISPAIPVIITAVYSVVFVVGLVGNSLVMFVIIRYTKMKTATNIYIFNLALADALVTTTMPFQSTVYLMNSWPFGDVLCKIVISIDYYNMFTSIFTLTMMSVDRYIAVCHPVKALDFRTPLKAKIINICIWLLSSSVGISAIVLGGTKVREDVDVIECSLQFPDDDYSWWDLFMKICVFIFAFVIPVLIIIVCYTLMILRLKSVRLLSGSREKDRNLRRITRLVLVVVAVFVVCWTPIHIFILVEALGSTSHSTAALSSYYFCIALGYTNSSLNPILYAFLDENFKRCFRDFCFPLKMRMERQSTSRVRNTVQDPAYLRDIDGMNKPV

Mu-type opioid receptor [11] = biological target: T1, Mu-type opioid receptor; test: Partial agonist activity at mu opioid receptor (unknown origin) expressed in CHO cell membrane assessed as stimulation of [35S]GTP-gamma-S binding; format: cell membranes
Mus musculus [12] = test: Toxicity in sc dosed Kunming mouse assessed as sedation by rotarod test; format: organism-based; details: in vivo
Mu-type opioid receptor [13] = biological target: T1, Mu-type opioid receptor; test: Displacement of [3H]D-Ala2,N-Me-Phe4,Gly5-ol]-Enkephalin from human mu opioid receptor expressed in CHO cell membrane; format: cell membranes
[14] = biological target: Delta-type opioid receptor (Mus musculus) (UniProt P32300); test: Antagonist activity at delta-opioid receptor in mouse vas deferens; format: tissue-based
Chain of Delta-type opioid receptor (Mus musculus) (P32300 whole entry): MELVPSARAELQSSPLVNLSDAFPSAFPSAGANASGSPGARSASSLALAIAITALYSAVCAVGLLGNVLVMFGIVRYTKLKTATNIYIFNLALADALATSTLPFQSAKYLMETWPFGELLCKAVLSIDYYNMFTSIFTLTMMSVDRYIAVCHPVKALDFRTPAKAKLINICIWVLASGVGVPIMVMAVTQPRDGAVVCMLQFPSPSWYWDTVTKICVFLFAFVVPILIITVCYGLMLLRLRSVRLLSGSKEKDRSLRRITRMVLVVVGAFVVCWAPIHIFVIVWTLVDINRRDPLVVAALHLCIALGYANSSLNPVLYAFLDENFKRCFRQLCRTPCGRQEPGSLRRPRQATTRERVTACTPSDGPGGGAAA

Mus musculus [15] = test: Antinociceptive activity in icv dosed mouse after 20 mins by tail flick test; format: functional
[16] = biological target: T3, Kappa-type opioid receptor; test: Binding affinity to kappa opioid receptor (unknown origin)
[17] = biological target: T2, Delta-type opioid receptor; test: Agonist activity at human delta-opioid receptor expressed in CHO cells by [35S]GTPgammaS binding assay; format: functional, cell-based
[18] = biological target: Delta-type opioid receptor (Mus musculus, UniProt P32300); test: Agonist activity at delta-opioid receptor in mouse vas deferens; format: tissue-based
Chain of Delta-type opioid receptor (Mus musculus, UniProt P32300) (P32300 whole entry): as above

[19] = biological target: Delta-type opioid receptor (Rattus norvegicus) (UniProt P33533); test: Agonist activity at rat delta opioid receptor transfected in C6 cells by [35S]GTPgammaS binding assay; format: functional, cell-based
Chain of Delta-type opioid receptor (Rattus norvegicus) (P33533 whole entry): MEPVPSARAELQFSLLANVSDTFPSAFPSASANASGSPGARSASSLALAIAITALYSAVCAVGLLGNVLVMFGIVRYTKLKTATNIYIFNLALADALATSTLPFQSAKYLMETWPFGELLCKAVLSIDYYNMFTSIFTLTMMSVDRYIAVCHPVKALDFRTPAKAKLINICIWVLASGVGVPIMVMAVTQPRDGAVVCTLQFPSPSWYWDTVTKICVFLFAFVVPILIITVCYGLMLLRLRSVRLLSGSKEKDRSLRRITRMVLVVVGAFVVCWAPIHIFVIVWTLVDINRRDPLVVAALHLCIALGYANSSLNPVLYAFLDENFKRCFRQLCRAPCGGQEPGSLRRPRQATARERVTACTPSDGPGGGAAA

[20] = biological target: Mu-type opioid receptor (Rattus norvegicus) (UniProt P33535); test: Agonist activity at rat mu opioid receptor transfected in C6 cells by [35S]GTPgammaS binding assay; format: functional, cell-based
Chain of Mu-type opioid receptor (Rattus norvegicus) (P33535 whole entry): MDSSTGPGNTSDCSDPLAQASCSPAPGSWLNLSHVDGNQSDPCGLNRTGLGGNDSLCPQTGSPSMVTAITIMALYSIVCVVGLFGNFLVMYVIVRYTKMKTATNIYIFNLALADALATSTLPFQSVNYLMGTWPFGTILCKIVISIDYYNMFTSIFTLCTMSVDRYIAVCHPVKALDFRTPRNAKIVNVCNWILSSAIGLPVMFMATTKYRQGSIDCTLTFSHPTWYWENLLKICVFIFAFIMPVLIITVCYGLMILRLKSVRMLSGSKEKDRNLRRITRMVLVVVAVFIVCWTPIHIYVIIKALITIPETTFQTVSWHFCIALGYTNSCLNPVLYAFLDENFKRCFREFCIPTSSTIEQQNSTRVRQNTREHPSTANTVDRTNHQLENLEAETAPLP

Q: Which Ki (Mu-type opioid receptor [1]) does the source give for Cc1cc(O)cc(C)c1C[C@H](N)C(=O)N1Cc2ccccc2C[C@H]1C(=O)N[C@@H](Cc1ccccc1)C(=O)N[C@@H](Cc1ccccc1)C(N)=O (H-[Dmt][Tic]FF-NH2) here?
A: Its Ki is 1.19 nM.

Q: Which results are given for CN1CC[C@]23c4c5ccc(O)c4O[C@@]2(C)c2[nH]c4ccccc4c2C[C@@]3(CCCc2ccccc2)[C@H]1C5?
A: Ki [2]: 1.95 nM; Ki (Mu-type opioid receptor [1]): 10.2 nM; EC50 [3]: 0.87 nM; EC50 (Mu-type opioid receptor [4]): 45.1 nM

Q: What does the source list for Cc1cc(O)cc(C)c1C[C@H](N)C(=O)N1Cc2ccccc2C[C@H]1C(=O)NCC(=O)Nc1ccccc1 (H-[Dmt]-[Tic]-Gly-NHPh)?
A: Ki [2]: 0.16 nM; Ki (Mu-type opioid receptor [1]): 0.042 nM

Q: With C=CCN1C[C@H](C)N([C@@H](c2cccc(O)c2)c2cccc(C(=O)N(C)c3cccc(F)c3)c2)C[C@H]1C as the compound, how does the IC50 [5] read?
A: Its IC50 is 3.4 nM.

Q: What about the IC50 (Mu-type opioid receptor [6]) of the same compound?
A: Its IC50 is 1 nM.

Q: What about the Ki [7] of the same compound?
A: Its Ki is 0.46 nM.

Q: With CN1CC[C@]23c4c5ccc(O)c4O[C@H]2[C@@H](O)C=C[C@H]3[C@H]1C5 [MORPHINE] as the compound, how does the ED50 (Rattus norvegicus) read?
A: Its ED50 is 2.7 mg/kg.

Q: For Cc1cc(O)cc(C)c1C[C@H](N)C(=O)N1Cc2ccccc2C[C@@H]1C(=O)NCC(=O)NCc1ccccc1 (H-[Dmt]-[dTic]-Gly-NHBn), which pKb [8] is on record?
A: Its pKb is 9.81.

Q: With Nc1nc2cc3c(cc2s1)CC1[C@@H]2CCCC[C@]32CCN1CC1CC1 as the compound, how does the ED50 (Mus musculus [9]) read?
A: The ED50 was 1.46 mg/kg.

Q: What about the Ki [10] of the same compound?
A: Its Ki is 0.049 nM.

Q: And the EC50 (Mu-type opioid receptor [11])?
A: The EC50 was 73 nM.

Q: What about the ED50 (Mus musculus [12]) of the same compound?
A: Its ED50 is 1.94 mg/kg.

Q: And the Ki (Mu-type opioid receptor [13])?
A: The Ki was 1.5 nM.

Q: How did the Ki [2] turn out when N[C@@H](Cc1ccc(O)cc1)C(=O)N1Cc2ccccc2CC1CN[C@@H](Cc1ccccc1)C(=O)NC(CC1CCCCC1)C(=O)O (stereo partly specified) was run?
A: Its Ki is 0.259 nM.

Q: What about the Ki (Mu-type opioid receptor [1]) of the same compound?
A: The Ki was 1050 nM.

Q: And the Ke [14]?
A: Its Ke is 0.175 nM.

Q: O=C(CCCCCCCCC(=O)Oc1ccc2c(c1)[C@@]13CCCC[C@H]1[C@@H](C2)N(CC1CCC1)CC3)Oc1ccc2c(c1)[C@@]13CCCC[C@H]1[C@@H](C2)N(CC1CCC1)CC3 was tested. Which ED50 (Mus musculus [15]) did it give?
A: The ED50 was 3 nmol.

Q: For Oc1ccc2c(c1)[C@@]13CCCC[C@H]1[C@@H](C2)N(CC1CCC1)CC3 [BUTORPHAN], which Ki [16] is on record?
A: The Ki was 0.073 nM.

Q: O=C1c2ccc(O)cc2[C@@]23CCCC[C@H]2[C@@H]1N(CC1CCCO1)CC3 (stereo partly specified) was tested. Which Ki [16] did it give?
A: Its Ki is 0.18 nM.

Q: And the Ki [2]?
A: The Ki was 1 nM.

Q: And the Ki (Mu-type opioid receptor [1])?
A: Its Ki is 0.38 nM.

Q: How did the EC50 [17] turn out when Cc1cc(O)cc(C)c1C[C@H](N)C(=O)N1Cc2ccccc2C[C@@H]1C(=O)NCc1nc2ccccc2[nH]1 was run?
A: The EC50 was 0.0813 nM.

Q: And the Ki [2]?
A: The Ki was 0.021 nM.

Q: What about the Ki (Mu-type opioid receptor [1]) of the same compound?
A: Its Ki is 0.5 nM.

Q: And the EC50 [18]?
A: The EC50 was 0.02 nM.

Q: What does the source list for NC(=O)[C@@H]1CSSC[C@@H](NC(=O)[C@@H](N)Cc2ccc(O)cc2)C(=O)N[C@@H](Cc2ccccc2)C(=O)N[C@@H](Cc2ccccc2)C(=O)N1 (H-Y[dC]FFC-NH2; disulfide 2-5)?
A: Emax [19]: 69%; Emax [20]: 77%
